Measurements published in patent US20130273546A1, “LOW TEMPERATURE ENZYME AND METHOD THEREOF” (UNIVERSITI PUTRA MALAYSIA, priority 2009, published 2013).

Legend:
[1] = tested on: Leucosporidium antarcticum strain PI12; test: Growth of the Antarctic isolate on solid media with antibiotics; type: cell-based; settings: 10 days at 4° C.
Description: Antarctic microorganism isolated strain was grown on different types of solid media (nutrient agar, sabouroud dextrose agar and potato dextrose agar) and several antibiotics for 10 days at 4° C. and the culture characteristics (colony colour, shape, texture) were determined. Simple staining was performed to identify the cell morphology, arrangement and size of the psychrophilic isolate PI12. Scanning electron microscopy (SEM) and transmission electron microscopy (TEM) were also conducted to study the surface features and the internal ultrastructure in thin sections of the PI12 cells. […] The growth for this microorganism was best at 4° C. and decreased through the temperature range tested (4° C.-20° C.) but no growth at over 20° C. […] The Antarctic microorganism strain PI12 was grown and screened qualitatively for the protease production on skim milk agar. The plate was incubated at 4° C. for 10 days. Protease was excreted out of the cells into the surrounding media, catalyzing the breakdown of casein and formed clearing zones around the growth area.

azocasein = test: Protease activity assay with azocasein as substrate (modified method of Brock et al.), culture supernatants; type: biochemical; settings: GpPro2 20.3 U/mL versus wild-type 1.0 U/mL
Description: After 10 days of incubation, the supernatant was assayed for protease activity. Protease activity was determined by the modified method of Brock et al. (1982). Azocasein (0.5%, 1 mL) was dissolved in 0.1 M Tris-HCl-2 mM CaCl2 pH 7 was pipetted into vials and pre-incubated at 4° C. The reaction was initiated by addition of 100 μL of enzyme solution for 30 min (unless stated otherwise). An equal volume of 10% (w/v) trichloroacetic acid (TCA) was added to terminate the reaction and the mixture was allowed to stand at room temperature for 30 min before centrifugation in eppendorf microcentrifuge at 13,000×g for 10 min. The supernatant was removed and mixed with an equal volume of 1 N NaOH. The absorbance was read at 450 nm using UV/Visible spectrophotometer Ultraspec 2100 pro (Amersham Biosciences, USA). One unit of azocaseinase activity was defined as the amount of enzyme activity which produces an absorbance change of 0.001 per min at 4° C. under the standard assay condition. For control, the enzyme was added at the end of the incubation period. […]
Assay activity of recombinant PI12 protease was determined by the modified method of Brock et a (1982) the assay activity for recombinant PI12 protease was performed at 15° C.

[2] = Temperature profile and storage stability of the protease activity; type: biochemical

Molecule | resistance of the microorganism toward antibiotic [1] | also measured
CC1(C)S[C@@H]2[C@H](NC(=O)[C@H](N)c3ccccc3)C(=O)N2[C@H]1C(=O)O [ampicillin] | resistance | –
O=C(N[C@H](CO)[C@H](O)c1ccc([N+](=O)[O-])cc1)C(Cl)Cl [chloramphenicol] | resistance | –
CN[C@@H]1[C@H](O[C@H]2[C@H](O[C@H]3[C@H](O)[C@@H](O)[C@H](N=C(N)N)[C@@H](O)[C@@H]3N=C(N)N)O[C@@H](C)[C@]2(O)C=O)O[C@@H](CO)[C@H](O)[C@H]1O [streptamycin] | resistance | –
recombinant PI12 protease: cold-adapted serine protease of L. antarcticum PI12 (SEQ ID NO: 2) expressed in Pichia pastoris (protein, listed as Leucosporidium antarcticum) MLFLPVLLLLLPGVTAFLNPVTNRATNAISSTQYLSNAYILELDLSTPGLVKRDSTPDSILEDVLTSVGRNGIKYQLRHRFISPTLFHGASITVPPGISRSQIASLRGIKRVWPVRKFSRPSAVVDADGGGSGFSGSPIKAALMGVKELGKRANAYAGDTFGPHVMTGVNETHEAGLLGAGIKIGVLDTGVDYLNPILGGCFGPGCHMSFGYDLVGDDYDGDNAPVPDVDPFASCDPHGTHVTGIIGALPNAFGFTGVAPAATLGHYRVFGCTGFVGEDIILAGLMRGVEDNCNVLTLSLGGPGGWVKGTPASILIDQIEAQGILVTVATGNSGAEGMFFSESPASTINGLSIASTDVTDLIAYNATVSGQPAIPYLSATPLNVVANSFRVHFTSTDPNNPVDACSPLPAGAPDFANYVTVVQRGTCTFVTKYQNVLNAGGKIVLLYNSEGAGNLPYLTPNGVGIDAVAGLRRSDGLKLLSYYQNANKRLTLRFPKGKIVAGLTDTITGGLISGYSTFGPTNDLYGQPTLSAPGGNILSTFPLSEGGVAVISGTSMSCPFVAGSAAVLMAARASENLTPLEIRSLLTTTAKLTPVSLLGSTPLVSVIRQGGGLVQVAKALAAKTLISPHELLLNDTANANYVQTIKIKNTNSWAMKYTFSSAVAQGLGTFDASGDILPTLDPVAVSGAQATVAFNTRILSVAPGATGSVVATITPPVLPVADAARFPIFSGWIRVNGQGARDSSRNEAYTVPYFGLAAKMIDMQVLDTTETIYGPGYAYPFVIDDAIGDIQSTTTSYSRNLGPTVFARFATGTLHYSLDLVLADIAFTPTYPNSSPATRFVKRSLTQHTSAASHLAKRRVSIATINPKATLVADRQLHSDVPIEGNIFTQPFTGRDYLVDAAPTGSTDRTVTFNGQYAENGLVRTAVTGTSYRFLLRALKISGDAMYEDQYESWLSLPFSFRA | – | recombinant protease activity relative to that produced by wild-type host (azocasein): 20.3 fold
Cold-adapted protease PI12: protease from Leucosporidium antarcticum strain PI12 (NCYC 3391), amino acid sequence SEQ ID NO: 2, GenBank CAQ76821 (protein, listed as Leucosporidium antarcticum) MLFLPVLLLLLPGVTAFLNPVTNRATNAISSTQYLSNAYILELDLSTPGLVKRDSTPDSILEDVLTSVGRNGIKYQLRHRFISPTLFHGASITVPPGISRSQIASLRGIKRVWPVRKFSRPSAVVDADGGGSGFSGSPIKAALMGVKELGKRANAYAGDTFGPHVMTGVNETHEAGLLGAGIKIGVLDTGVDYLNPILGGCFGPGCHMSFGYDLVGDDYDGDNAPVPDVDPFASCDPHGTHVTGIIGALPNAFGFTGVAPAATLGHYRVFGCTGFVGEDIILAGLMRGVEDNCNVLTLSLGGPGGWVKGTPASILIDQIEAQGILVTVATGNSGAEGMFFSESPASTINGLSIASTDVTDLIAYNATVSGQPAIPYLSATPLNVVANSFRVHFTSTDPNNPVDACSPLPAGAPDFANYVTVVQRGTCTFVTKYQNVLNAGGKIVLLYNSEGAGNLPYLTPNGVGIDAVAGLRRSDGLKLLSYYQNANKRLTLRFPKGKIVAGLTDTITGGLISGYSTFGPTNDLYGQPTLSAPGGNILSTFPLSEGGVAVISGTSMSCPFVAGSAAVLMAARASENLTPLEIRSLLTTTAKLTPVSLLGSTPLVSVIRQGGGLVQVAKALAAKTLISPHELLLNDTANANYVQTIKIKNTNSWAMKYTFSSAVAQGLGTFDASGDILPTLDPVAVSGAQATVAFNTRILSVAPGATGSVVATITPPVLPVADAARFPIFSGWIRVNGQGARDSSRNEAYTVPYFGLAAKMIDMQVLDTTETIYGPGYAYPFVIDDAIGDIQSTTTSYSRNLGPTVFARFATGTLHYSLDLVLADIAFTPTYPNSSPATRFVKRSLTQHTSAASHLAKRRVSIATINPKATLVADRQLHSDVPIEGNIFTQPFTGRDYLVDAAPTGSTDRTVTFNGQYAENGLVRTAVTGTSYRFLLRALKISGDAMYEDQYESWLSLPFSFRA | – | optimum temperature [2]: 4 [deg.] C.; enzyme activity retained ([2]; after incubating the enzyme at 4[deg.] C. for about 10 days): One hundred
